Experiments:
[1] = system: TRPC6 mRNA; type: cell-based
[2] = system: γ-secretase; settings: phase 3 clinical trial, cited from earlier work
[3] = system: TRPC6 mRNA; experiment: TRPC6 mRNA in Jurkat cells after APOE-containing culture medium; type: cell-based, human; settings: after 5 hr
Procedure: (§1) The culture medium containing different APOE isoforms were added into the Jurkat cells (human T cell line from peripheral blood). The mRNA levels of TRPC6 and TRPC5 were detected after 5 hr (mean±SE, n=5).

[4] = system: TRPC6 mRNA; experiment: TRPC6 mRNA in rat neurons after APOE-containing culture medium supernatant; type: cell-based; settings: rat neurons cultured in vitro for 8 days, after 2 hr
Procedure: (§2) The culture medium supernatant containing different APOE isoforms were added into rat neurons cultured in vitro for 8 days. The mRNA levels of TRPC6 and TRPC5 were detected after 2 hr (mean±SE, n=8).

[5] = system: TRPC5 mRNA; experiment: TRPC5 mRNA in Jurkat cells after APOE-containing culture medium; type: cell-based, human; settings: after 5 hr
Procedure: as §1

[6] = system: TRPC5 mRNA; experiment: TRPC5 mRNA in rat neurons after APOE-containing culture medium supernatant; type: cell-based; settings: rat neurons cultured in vitro for 8 days, after 2 hr
Procedure: as §2

[7] = system: Aβ levels in primary cultured rat cortical neurons; experiment: Aβ ELISA of medium, primary cultured rat cortical neurons electrotransfected with siRNA; type: cell-based; settings: Table 6, 7 days after electrotransfection, control siRNA = 1
Procedure: (§3) Upon collecting the culture medium of the cells, Aβ40 and Aβ42 levels were quantified with sandwich ELISA kit, respectively (purchased from Invitrogen). The forebrain of the mouse was dissected and separated, and then homogenized with GuHCL. After that, total Aβ was determined by ELISA. For determining TBST(Tris-Buffered Saline and 1% TritonX100, 1% SDS, 1% DOC) soluble and insoluble Aβ, upon TBST homogenation and centrifugation of the forebrain of the mouse, the supernatant was determined for TBST soluble Aβ by ELISA, and the precipitate was determined for TBST insoluble Aβ by ELISA upon another GuHCL homogenate.
Fetal rat was collected on the 17th day of SD rat pregnancy. Cortical neurons of the rat brains were separated, obtained, and electrotransfected by Nucleofector Device (Amaxa) with TRPC6 siRNA1 as set forth by SEQ ID NO.:12 (sense strand) and SEQ ID NO.:13 (anti-sense strand), TRPC6 siRNA2 as set forth by SEQ ID NO.:18 ([…], sense strand) and SEQ ID NO.:19 ([…], anti-sense strand), control siRNAs as set forth by SEQ ID NO.:14 (sense strand) and SEQ ID NO.:15 (anti-sense strand), and TRPC5 siRNA as set forth by SEQ ID NO.:20 ([…], sense strand) and SEQ ID NO.:21 ([…], anti-sense strand). 7 days after electrotransfection, Aβ levels in the medium were examined by ELISA.

[8] = system: Aβ levels in HEK293APP stable cells; experiment: Aβ ELISA, HEK293APP stable cells treated with TAT fusion peptides; type: cell-based
Procedure: as §3
In this Example, the second transmembrane domain (487-507aa, TM2) was selected to fuse with cell penetrating peptide TAT and the fusion peptide TAT-TM2 and the mutant thereof TAT-TM2mut were obtained. Their effects on Aβ levels were examined in HEK293APP stable cells.
6.1.2 The Effect of Different Doses of Fusion Protein TAT-TM2 on Aβ Levels in HEK293APP Stable Cells were Determined.
To search for shorter fragments which could inhibit Aβ levels, TM2 was divided into N- and C-terminals and fused with TAT respectively. The effects of TAT-TM2-N, TAT-TM2-C and TAT-TM2-C mutant on Aβ levels in HEK293APP cells was examined.

[9] = system: γ-secretase cleavage of C99; experiment: C99-GVP/UAS luciferase reporter system with peptide; type: cell-based; settings: Table 11; luciferase activity; TAT = 1
Procedure: HEK293APP were transfected with C99-GVP/UASLuciferase, CTRL or TRPC6 plasmids, and were lysed 24 hours later. The luciferase activities were determined using the Luciferase assay system (purchased from Promega). β-gal was co-transfected to normalize the transfection efficiency.
(§4) C99 is the C-terminal 99 amino acids of APP and the direct substrate of γ-secretase. C0S7C99 cells were passaged in 12-well plate till the density approached 100%. Each well was treated with 5 um peptide for 12 h and the Aβ levels in the culture medium was determined with ELISA.

[10] = system: Aβ levels in APP/PS1 mice; experiment: Brain Aβ levels in APP/PS1 mice after intraperitoneal injection of peptide; type: in vivo; settings: intraperitoneally injected, brain tissue 3 hours later
Procedure: 6. Construction of APP/PS1 AD Mouse Models • a) APP/PS1 mice (with B6C3 background) were purchased from Jackson laboratory (#004462). • b) Construction of TRPC6 transgenic mouse
as §3
TAT or TAT-TM2 was intraperitoneally injected into APP/PS1 mice, and brain tissue samples were prepared 3 hours later and the Aβ levels were determined: general method 8 (n=8)

[11] = system: γ-secretase cleavage of C99; experiment: Aβ ELISA, C0S7C99 cells treated with peptide; type: cell-based; settings: Table 11; C0S7-C99 stable cells, 5 um peptide for 12 h; TAT = 1
Procedure: as §4

[12] = system: Aβ levels in primary cultured cortical neurons; experiment: Aβ levels in primary cultured cortical neurons treated with TAT-TM2; type: cell-based
Procedure: as §3
6.1.3 The Effect of the Fusion Peptide TAT-TM2 on Aβ Levels in Primary Cultured Cortical Neurons was Determined and the Results were Shown in FIG. 9c: […]

[13] = system: γ-secretase cleavage of Notch; experiment: NICD immunoblotting, Notch-transfected cells treated with peptide; type: cell-based; settings: 5 um peptide for 12 hr
Procedure: Cells were passaged in 12-well plate till the density approached 80%, Each well was transfected with 1 ug Notch plasmid using Lipofectamine 2000. 24 hr later, cells were treated with 5 um peptide for 12 hr. The Notch protein expression was determined by immunoblotting. Wherein, NICD (notch intracellular domain) was the intracellular fragment produced by γ-secretase cleavage of NotchΔE-myc, reflecting the level of γ-secretase cleavage of Notch.

[14] = Table 5, HEK293APP stable cells, TAT control line, concentration not given
[15] = Table 8, HEK293APP stable cells, TAT = 1
[16] = Table 9, TAT-TM2 variants, HEK293APP cells, TAT = 1
[17] = Table 5, HEK293APP stable cells, 2 uM, TAT = 1
[18] = Table 5, HEK293APP stable cells, 5 uM, TAT = 1
[19] = Table 5, HEK293APP stable cells, 10 uM, TAT = 1

Question: Which “TRPC6 expression (mRNA)” value [1] does the source give for `[Cl-].[Cl-].[Co+2]` [CoCl2] here?
Answer: could upregulate TRPC6 expression

Question: For `CC(C)[C@H](O)C(=O)N[C@@H](C)C(=O)N[C@@H]1C(=O)N(C)CCc2ccccc21` [Semagacestat], which adverse gastrointestinal reaction ([2]; AD patients) is on record?
Answer: increased

Question: What about the “risk of skin cancer” value ([2]; AD patients) of the same compound?
Answer: increased

Question: And the “cognitive function of the AD patients” value [2]?
Answer: declined

Question: What does the source list for “APOE4: culture medium supernatant containing APOE4 isoform”?
Answer: TRPC6 mRNA levels [3]: could not affect TRPC6 mRNA levels; TRPC6 mRNA levels [4]: could not affect the TRPC6 mRNA levels; TRPC5 mRNA levels [5]: could not affect TRPC5 mRNA levels; TRPC5 mRNA levels [6]: could not affect the TRPC5 mRNA levels

Question: Which Aβ40 [7] does the source give for “Control siRNA: control siRNAs, SEQ ID NO.:14 (sense strand) and SEQ ID NO.:15 (anti-sense strand) (sense GCACACCGAAGGAUAUUCUTT; antisense AGAAUAUCCUUCGGUGUGCTT; chemistry not given here)” here?
Answer: 1

Question: What about the Aβ42 [7] of the same compound?
Answer: 1

Question: With “TAT (GRKKRRQRRRC; fusion peptide) [reference compound]” as the compound, how does the Aβ40 [8, 14] read?
Answer: 1

Question: What about the Aβ42 [8, 14] of the same compound?
Answer: 1

Question: And the Aβ40 [8, 15]?
Answer: 1

Question: What about the Aβ42 [8, 15] of the same compound?
Answer: 1

Question: And the Aβ40 [8, 16]?
Answer: 1

Question: And the Aβ42 [8, 16]?
Answer: 1

Question: And the “C99-GVP/UAS luciferase reporter system” value [9]?
Answer: 1

Question: And the Aβ40 [10]?
Answer: 169.70 ± 61.78 pg/mg

Question: And the Aβ42 [10]?
Answer: 492.60 ± 157.70 pg/mg

Question: What about the Aβ40 [11] of the same compound?
Answer: 1

Question: And the Aβ42 [11]?
Answer: 1

Question: With “TAT-TM2: fusion peptide of TRPC6 second transmembrane domain (487-507aa) and TAT, SEQ ID NO.:17, TSCFSWMEMLIISWVIGMIWAGRKKRRQRRRC (fusion peptide)” as the compound, how does the “Aβ40, of the control group” value [12] read?
Answer: 83%

Question: And the “Aβ42, of the control group” value [12]?
Answer: 68%

Question: What about the Aβ40 [8, 17] of the same compound?
Answer: 0.6825 ± 0.0498

Question: And the Aβ42 [8, 17]?
Answer: 0.6244 ± 0.03189

Question: What about the Aβ40 [8, 18] of the same compound?
Answer: 0.4863 ± 0.05919

Question: What about the Aβ42 [8, 18] of the same compound?
Answer: 0.3255 ± 0.02046

Question: And the Aβ40 [8, 19]?
Answer: 0.2481 ± 0.0763

Question: And the Aβ42 [8, 19]?
Answer: 0.2214 ± 0.01597

Question: And the Aβ40 [8, 15]?
Answer: 0.39 ± 0.03

Question: What about the Aβ42 [8, 15] of the same compound?
Answer: 0.40 ± 0.06

Question: What about the “NICD level (γ-secretase cleavage of NotchΔE-myc)” value [13] of the same compound?
Answer: did not affect NICD level

Question: What about the “C99-GVP/UAS luciferase reporter system” value [9] of the same compound?
Answer: 0.82 ± 0.02

Question: What about the Aβ40 [10] of the same compound?
Answer: 91.12 ± 43.56 pg/mg

Question: And the Aβ42 [10]?
Answer: 277.40 ± 124.10 pg/mg

Question: And the Aβ40 [11]?
Answer: 0.39 ± 0.11

Question: And the Aβ42 [11]?
Answer: 0.58 ± 0.04

Question: With “TRPC5 siRNA: TRPC5 siRNA, SEQ ID NO.:20 AACGCCUUCUCCACGCUCUUU and SEQ ID NO.:21 AAAGAGCGUGGAGAAGGCGUU (listed as RNA, chemistry not given here)” as the compound, how does the Aβ40 [7] read?
Answer: 0.96 ± 0.09

Question: And the Aβ42 [7]?
Answer: 1.03 ± 0.02

Question: Which results are given for “TRPC6 siRNA-1: TRPC6 siRNA, SEQ ID NO.:12 (sense strand) and SEQ ID NO.:13 (anti-sense strand) (sense CGGUGGUCAUCAACUACAATT; antisense UUGUAGUUGAUGACCACCGTT; chemistry not given here)”?
Answer: Aβ40 [7]: 1.49 ± 0.16; Aβ42 [7]: 1.89 ± 0.21

Question: For “TRPC6 siRNA-2: TRPC6 siRNA, SEQ ID NO.:18 GCUUGACUUUGGAAUGUUATT and SEQ ID NO.:19 UAACAUUCCAAAGUCAAGCTT (chemistry not given here)”, which Aβ40 [7] is on record?
Answer: 1.33 ± 0.13

Question: And the Aβ42 [7]?
Answer: 1.63 ± 0.17
